Key:
[1] = test system: PKC inhibitor (PKCi)-resistant MP41 uveal melanoma cells; experiment: 7-day growth inhibition assay, PKC inhibitor-resistant cells; assay type: cell-based; details: 7-day assay; FIG. 7A
Procedure: Procedure: Uveal melanoma cell lines (92-1, MP41, MP38, MP46), prostate cancer cell lines (LNCAP), lung cancer cell lines (NCI-H1299), and immortalized embryonic kidney lines (HEK293T) were plated into 96 well plates with growth media (see Table 5). […] Cells were incubated at 37 degrees Celsius for 3 days. After three days of treatment, the media was removed from the cells and 30 microliters of TrypLE (Gibco) was added to cells for 10 minutes. Cells were detached from the plates and resuspended with the addition of 170 microliters of growth media. Cells from two DMSO-treated control wells were counted, and the initial number of cells plated at the start of the experiment, were re-plated into fresh-compound containing plates for an additional four days at 37 degrees Celsius. At day 7, cells were harvested as described above. On day 3 and day 7, relative cell growth was measured by the addition of Cell-titer glo (Promega) and luminescence was measured on an Envision plate reader (Perkin Elmer). […] At the time of cell splitting on days […], cells were split into new 96 well plates, and fresh compound was added four hours after re-plating.
Procedure: MP41 uveal melanoma cells were made resistant to the PKC inhibitor (LXS196; MedChemExpress), by long-term culture in growth media (see Table 27) containing increasing concentrations of the compound, up to 1 micromolar.

BRG-1 = BRG-1 (Homo sapiens, UniProt P51532); experiment: ATPase catalytic activity assay (ADP-Glo), BRG-1; details: for Emax: 1 h, read-out: BRG1 Max % Inhibition, ADP-Glo, 30 nM BRG-1, 400 μM ATP
Sequence of BRG-1 (P51532 whole entry): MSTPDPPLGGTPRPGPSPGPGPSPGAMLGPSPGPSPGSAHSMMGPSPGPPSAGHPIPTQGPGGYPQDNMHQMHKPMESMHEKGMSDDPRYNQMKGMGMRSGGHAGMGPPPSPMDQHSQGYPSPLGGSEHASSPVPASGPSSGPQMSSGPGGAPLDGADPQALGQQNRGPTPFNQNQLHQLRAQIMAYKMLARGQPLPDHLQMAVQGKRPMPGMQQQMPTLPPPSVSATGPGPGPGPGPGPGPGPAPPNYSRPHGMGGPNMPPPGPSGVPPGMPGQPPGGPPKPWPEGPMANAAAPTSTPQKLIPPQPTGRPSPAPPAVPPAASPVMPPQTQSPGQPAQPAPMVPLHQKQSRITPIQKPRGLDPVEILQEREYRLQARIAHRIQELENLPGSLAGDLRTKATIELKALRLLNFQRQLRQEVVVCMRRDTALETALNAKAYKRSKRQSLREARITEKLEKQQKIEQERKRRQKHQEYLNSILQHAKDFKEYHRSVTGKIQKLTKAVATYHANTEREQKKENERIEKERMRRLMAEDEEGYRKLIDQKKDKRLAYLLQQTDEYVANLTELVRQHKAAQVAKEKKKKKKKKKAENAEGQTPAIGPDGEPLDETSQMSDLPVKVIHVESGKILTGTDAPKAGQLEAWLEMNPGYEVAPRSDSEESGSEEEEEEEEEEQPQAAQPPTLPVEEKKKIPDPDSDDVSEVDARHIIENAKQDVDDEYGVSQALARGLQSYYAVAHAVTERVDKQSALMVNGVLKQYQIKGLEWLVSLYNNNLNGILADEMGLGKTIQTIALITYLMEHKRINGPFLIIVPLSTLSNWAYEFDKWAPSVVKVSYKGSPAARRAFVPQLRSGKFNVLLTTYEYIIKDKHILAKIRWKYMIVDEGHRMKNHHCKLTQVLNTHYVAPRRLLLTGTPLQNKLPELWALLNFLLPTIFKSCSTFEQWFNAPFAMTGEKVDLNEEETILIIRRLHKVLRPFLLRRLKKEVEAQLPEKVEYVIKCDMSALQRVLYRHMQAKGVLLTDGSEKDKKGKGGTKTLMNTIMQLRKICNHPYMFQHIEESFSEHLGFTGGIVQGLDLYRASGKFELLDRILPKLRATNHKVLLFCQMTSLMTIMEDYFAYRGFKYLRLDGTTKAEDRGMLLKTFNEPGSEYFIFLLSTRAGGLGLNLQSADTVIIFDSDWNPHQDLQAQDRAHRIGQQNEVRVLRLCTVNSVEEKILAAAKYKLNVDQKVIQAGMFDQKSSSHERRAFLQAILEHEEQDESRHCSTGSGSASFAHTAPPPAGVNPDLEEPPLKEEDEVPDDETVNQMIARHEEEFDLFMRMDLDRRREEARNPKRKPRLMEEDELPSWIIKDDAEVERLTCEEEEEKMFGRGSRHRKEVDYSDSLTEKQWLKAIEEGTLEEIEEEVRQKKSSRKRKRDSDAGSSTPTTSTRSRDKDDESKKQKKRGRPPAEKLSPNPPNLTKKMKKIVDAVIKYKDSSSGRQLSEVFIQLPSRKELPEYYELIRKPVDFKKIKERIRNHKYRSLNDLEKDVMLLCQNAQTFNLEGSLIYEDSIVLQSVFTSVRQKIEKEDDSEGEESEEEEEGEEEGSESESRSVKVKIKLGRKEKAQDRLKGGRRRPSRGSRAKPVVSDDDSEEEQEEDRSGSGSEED

BRM = BRM (Homo sapiens, UniProt P51531); experiment: ATPase catalytic activity assay (ADP-Glo), BRM; details: 30 nM BRM, 400 μM ATP; for IC50: BRM ATPase: IC50 (uM)
Sequence of BRM (P51531 whole entry): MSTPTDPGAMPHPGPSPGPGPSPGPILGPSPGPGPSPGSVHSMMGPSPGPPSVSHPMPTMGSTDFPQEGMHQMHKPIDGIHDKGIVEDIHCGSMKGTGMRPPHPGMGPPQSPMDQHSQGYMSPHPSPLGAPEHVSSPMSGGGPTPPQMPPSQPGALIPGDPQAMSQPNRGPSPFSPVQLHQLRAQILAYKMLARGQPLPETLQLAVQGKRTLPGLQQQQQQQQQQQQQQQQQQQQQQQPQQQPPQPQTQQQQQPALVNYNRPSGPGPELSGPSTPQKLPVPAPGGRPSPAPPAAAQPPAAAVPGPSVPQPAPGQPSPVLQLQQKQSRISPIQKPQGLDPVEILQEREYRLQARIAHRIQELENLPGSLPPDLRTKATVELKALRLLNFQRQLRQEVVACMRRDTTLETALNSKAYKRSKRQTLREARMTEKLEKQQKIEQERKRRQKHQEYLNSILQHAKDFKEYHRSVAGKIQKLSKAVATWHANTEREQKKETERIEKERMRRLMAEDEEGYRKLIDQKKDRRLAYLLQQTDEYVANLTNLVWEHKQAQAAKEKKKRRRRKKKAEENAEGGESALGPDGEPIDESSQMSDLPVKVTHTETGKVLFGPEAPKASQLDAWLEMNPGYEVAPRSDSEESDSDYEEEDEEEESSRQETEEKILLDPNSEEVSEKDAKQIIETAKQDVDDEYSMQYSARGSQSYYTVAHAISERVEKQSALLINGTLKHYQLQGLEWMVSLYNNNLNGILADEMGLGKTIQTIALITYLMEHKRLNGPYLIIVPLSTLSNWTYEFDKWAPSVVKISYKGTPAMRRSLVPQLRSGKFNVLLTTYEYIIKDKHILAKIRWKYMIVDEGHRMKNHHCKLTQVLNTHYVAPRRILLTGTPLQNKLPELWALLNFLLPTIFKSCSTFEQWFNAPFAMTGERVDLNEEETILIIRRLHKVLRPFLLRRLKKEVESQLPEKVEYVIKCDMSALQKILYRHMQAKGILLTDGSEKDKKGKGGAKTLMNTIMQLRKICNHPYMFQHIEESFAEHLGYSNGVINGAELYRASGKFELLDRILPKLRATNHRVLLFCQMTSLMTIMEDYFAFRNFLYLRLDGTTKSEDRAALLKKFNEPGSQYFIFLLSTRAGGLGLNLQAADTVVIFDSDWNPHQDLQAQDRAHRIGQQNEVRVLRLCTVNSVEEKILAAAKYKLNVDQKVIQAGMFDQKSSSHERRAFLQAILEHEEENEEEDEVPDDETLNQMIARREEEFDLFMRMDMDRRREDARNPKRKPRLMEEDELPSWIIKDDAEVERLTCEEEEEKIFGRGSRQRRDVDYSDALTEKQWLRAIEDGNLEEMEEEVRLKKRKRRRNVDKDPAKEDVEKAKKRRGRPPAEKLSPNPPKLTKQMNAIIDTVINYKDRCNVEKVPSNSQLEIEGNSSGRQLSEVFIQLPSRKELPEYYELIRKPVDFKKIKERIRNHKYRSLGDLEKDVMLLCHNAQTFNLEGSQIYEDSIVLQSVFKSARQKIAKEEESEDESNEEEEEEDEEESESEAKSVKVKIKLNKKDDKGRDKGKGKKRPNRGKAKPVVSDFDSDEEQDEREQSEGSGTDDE

| Compound | IC50 (BRG-1) [nM] | Emax (BRG-1) [%] | BRM Max % Inhibition (BRM) [%] | IC50 (BRM) [µM] | tolerated concentration for growth, PKCi-resistant vs parental cells [1] |
| --- | --- | --- | --- | --- | --- |
| CC1(N)CCN(c2cccnc2NC(=O)c2nc(-c3ncccc3C(F)(F)F)cnc2N)CC1 [LXS196, reference compound] | – | – | – | – | could tolerate growth at higher concentrations of LXS196 than could the parental MP41 cell line |
| COC(=O)c1cccc(C#Cc2ccnc(CNC(=O)c3ccc4c(c3)[C@](C)(C#N)CO4)c2)c1 [Compound 37] | > 1000 | 21 | 76 | > 1 | – |
| C[C@@]1(C#N)COCc2ccc(C(=O)NCc3cc4c(cn3)CCN(c3ccnc(C5CC5)n3)C4)cc21 [Compound 327] | > 1000 | 48 | 89 | 0.1 to 0.5 | – |
| C[C@@]1(F)COCc2ccc(C(=O)NCc3cc4nc(-c5cncc(N6CCC6)n5)ccc4cn3)cc21 [Compound 401] | 100 to 500 | 91 | 97 | < 0.1 | – |
| COc1cccc(C#Cc2ccnc(CNC(=O)c3ccc4c(c3)[C@](C)(C#N)COC4)c2)c1 [Compound 2] | > 1000 | 65 | 96 | 0.1 to 0.5 | – |
| C[C@@]1(C#N)COCc2ccc(C(=O)NCc3cc(N4CCC5(C4)CN(c4ccccc4)C5)ccn3)cc21 [Compound 11] | > 1000 | 26 | 82 | > 1 | – |
| C[C@@]1(C#N)COCc2ncc(C(=O)NCc3cc4nc(-c5cccc(C6CC6)n5)ccc4cn3)cc21 [Compound 208] | 100 to 500 | 92 | 98 | < 0.1 | – |
| C[C@@]1(C#N)COCc2ccc(C(=O)NCc3cc(N4CCc5ccccc5C4)ccn3)cc21 [Compound 28] | 500 to 1000 | 86 | 98 | < 0.1 | – |
| C[C@@]1(C#N)COCc2ccc(C(=O)NCc3ncc4ccc(-c5cncc(C6CC6)n5)nc4c3F)cc21 [Compound 130] | 100 to 500 | 90 | 97 | < 0.1 | – |
| C[C@@]1(C#N)COCc2ccc(C(=O)NCc3cc4c(cn3)CCN(c3cncc(C5CC5)n3)C4)cc21 [Compound 328] | 500 to 1000 | 81 | 99 | < 0.1 | – |
| C[C@@]1(C#N)COCc2ccc(C(=O)NCc3cc4nc(-c5ccnc(N6CCC6)c5F)sc4cn3)cc21 [Compound 235] | 100 to 500 | 72 | 99 | < 0.1 | – |
| C[C@@]1(F)COCc2ccc(C(=O)NCc3cc4nc(-c5ccccc5)ccc4nn3)cc21 [Compound 277] | 500 to 1000 | 69 | 96 | 0.1 to 0.5 | – |
| C[C@@]1(C#N)COCc2ccc(C(=O)NCc3cc(N4CCc5ccc(C(F)F)cc5C4)ccn3)cc21 [Compound 63] | 500 to 1000 | 84 | 99 | < 0.1 | – |
| C[C@@]1(C#N)COCc2ccc(C(=O)NCc3cc4cc(-c5ccnc(N6CCC6)n5)cnc4cn3)cc21 [Compound 377] | 500 to 1000 | 89 | 98 | < 0.1 | – |
| C[C@@]1(F)COCc2ccc(C(=O)NCc3cc4nc(-c5cccc(C(F)F)n5)ccc4nn3)cc21 [Compound 254] | 500 to 1000 | 77 | 99 | < 0.1 | – |
| COc1nn(C)cc1-c1ccc2cnc(CNC(=O)c3cc(F)c4c(c3)[C@](C)(F)COC4)cc2n1 [Compound 333] | 500 to 1000 | 79 | 100 | < 0.1 | – |
| C[C@@]1(C#N)COCc2ccc(C(=O)NCc3cc([C@H]4C[C@@H]4c4ccccc4)ccn3)cc21 [Compound 7] | > 1000 | 12 | 81 | > 1 | – |
| COc1cncc(-c2ccc3nnc(CNC(=O)c4ccc5c(c4)[C@](C)(C#N)COC5)cc3c2)n1 [Compound 349] | 100 to 500 | 87 | 100 | < 0.1 | – |

Second part, led by results:

| IC50 (BRG-1) [nM] | Emax (BRG-1) [%] | BRM Max % Inhibition (BRM) [%] | IC50 (BRM) [µM] | Compound | tolerated concentration for growth, PKCi-resistant vs parental cells [1] |
| --- | --- | --- | --- | --- | --- |
| < 100 | 98 | 100 | < 0.1 | Cc1cc2c(-c3ccc4cnc(CNC(=O)c5ccc6c(c5)[C@](C)(C#N)COC6)cc4n3)ccc(F)c2n1C [Compound 129] | – |
| 500 to 1000 | 74 | 95 | 0.1 to 0.5 | Cn1cc2c(n1)CN(c1ccc3cnc(CNC(=O)c4ccc5c(c4)[C@](C)(C#N)COC5)cc3n1)CC2 [Compound 458] | – |
| 500 to 1000 | 71 | 93 | 0.1 to 0.5 | COc1c(-c2ccc3cnc(CNC(=O)c4ccc5c(c4)[C@](C)(C#N)COC5)cc3n2)cnn1C [Compound 462] | – |
| 100 to 500 | 97 | 99 | < 0.1 | CN(C)c1cncc(-c2ccc3cnc(CNC(=O)c4ccc5c(c4)[C@](C)(C#N)COC5)cc3n2)n1 [Compound 407] | – |
| 500 to 1000 | 63 | 94 | 0.1 to 0.5 | CN1C(=O)Cc2ccc(-c3ccc4cnc(CNC(=O)c5ccc6c(c5)[C@](C)(C#N)COC6)cc4n3)cc21 [Compound 476] | – |
| > 1000 | 32 | 74 | 0.1 to 0.5 | CC(=O)N(C)c1cccc(-c2ccc3cnc(CNC(=O)c4ccc5c(c4)[C@](C)(C#N)COC5)cc3n2)n1 [Compound 396] | – |
| 500 to 1000 | 79 | 99 | < 0.1 | CNC(=O)c1cccc(-c2ccc3cnc(CNC(=O)c4ccc5c(c4)[C@](C)(C#N)COC5)cc3n2)n1 [Compound 466] | – |
| 500 to 1000 | 68 | 96 | 0.1 to 0.5 | C[C@@]1(C#N)COCc2ccc(C(=O)NCc3cc4nc(-c5cnn6ccccc56)ccc4cn3)cc21 [Compound 493] | – |
| 100 to 500 | 88 | 98 | < 0.1 | COc1nccc(-c2ccc3cnc(CNC(=O)c4ccc5c(c4)[C@](C)(C#N)COC5)cc3n2)c1F [Compound 432] | – |
| 500 to 1000 | 76 | 108 | 0.1 to 0.5 | COCCNC(=O)c1ccc(-c2ccc3cnc(CNC(=O)c4ccc5c(c4)[C@](C)(C#N)COC5)cc3n2)cc1 [Compound 323] | – |
| 100 to 500 | 86 | 99 | < 0.1 | CNC(=O)c1cc(-c2ccc3cnc(CNC(=O)c4ccc5c(c4)[C@](C)(C#N)COC5)cc3n2)ccc1F [Compound 467] | – |
| 100 to 500 | 95 | 99 | < 0.1 | Cn1ncc2c(-c3ccc4cnc(CNC(=O)c5ccc6c(c5)[C@](C)(C#N)COC6)cc4n3)cccc21 [Compound 182] | – |
| 500 to 1000 | 77 | 96 | 0.1 to 0.5 | COc1c(F)cccc1-c1ccc2cnc(CNC(=O)c3ccc4c(c3)[C@](C)(C#N)COC4)cc2n1 [Compound 516] | – |
| 100 to 500 | 93 | 100 | < 0.1 | C[C@@]1(C#N)COCc2ccc(C(=O)NCc3cc4nc(-c5cncc(N6CCOCC6)n5)ccc4cn3)cc21 [Compound 435] | – |
| 100 to 500 | 93 | 100 | < 0.1 | C[C@@]1(C#N)COCc2ccc(C(=O)NCc3cc4nc(-c5cncc(C6CC6)n5)ccc4cn3)cc21 [Compound 406] | – |
| > 1000 | 25 | 83 | 0.1 to 0.5 | C[C@@]1(C#N)COCc2ccc(C(=O)NCc3cc4nc(-c5cn(C6COC6)nc5CC(F)F)ccc4cn3)cc21 [Compound 136] | – |
| 100 to 500 | 92 | 100 | < 0.1 | COC1CN(c2nccc(-c3ccc4cnc(CNC(=O)c5ccc6c(c5)[C@](C)(C#N)COC6)cc4n3)n2)C1 [Compound 430] | – |
| 500 to 1000 | 80 | 97 | < 0.1 | COc1cc(-c2ccc3cnc(CNC(=O)c4ccc5c(c4)[C@](C)(C#N)COC5)cc3n2)ccn1 [Compound 512] | – |
| 500 to 1000 | 72 | 98 | 0.1 to 0.5 | Cc1cc(-c2ccc3cnc(CNC(=O)c4ccc5c(c4)[C@](C)(C#N)COC5)cc3n2)n[nH]1 [Compound 264] | – |
| 500 to 1000 | 74 | 93 | 0.1 to 0.5 | C[C@@]1(C#N)COCc2ccc(C(=O)NCc3cc4nc(-c5cncc(C(F)F)n5)ccc4cn3)cc21 [Compound 355] | – |
| 100 to 500 | 95 | 104 | < 0.1 | C[C@@]1(C#N)COCc2ccc(C(=O)NCc3cc4cc(-c5ccnc(N6CCC6)c5F)ccc4cn3)cc21 [Compound 272] | – |

— patent US12441726B2, “Compounds and uses thereof” (Foghorn Therapeutics Inc., priority 2020, dated 2025)
